US20090227487A1, “METHODS FOR THE CONTROL OF MACROPHAGE-ASSOCIATED INFLAMMATION” (priority 2008, published 2009)

Columns and labels:
Type in all cases: cell-based, murine
Raw 264.7 macrophages [1] = test: PMMA particle-induced TNF-α release from macrophages preincubated with MyD88 inhibitory peptide or control peptide (ELISA); conditions: 100 μM peptide, 24 h preincubation, PMMA particles 0.30% v/v, p<0.01
Description: MyD88 inhibitory peptide experiments: The murine monocyte/macrophage cell line Raw 264.7 was cultured in DMEM containing 10% (v/v) FBS (5% CO2, 37° C.). Cells were plated in 24-well tissue culture plates at 1×10^5 cells/well in 1 ml of media with serum and allowed to adhere for 24 hours. […] Following the preincubation period in each group, PMMA particles (Polysciences, 1-10 μm) were added at a dose of 0.30% v/v. Each group was plated in triplicate and the experiment was repeated three times.
Quantification of TNF-α release: Macrophages were exposed to PMMA particles and samples from the culture media were collected at 1, 4, and 12 hours post challenge. TNF-α levels were quantified using ELISA kits. Data were analyzed by ANOVA.
(§1) Preparation of particles: PMMA particles were washed 5× with 70% ethanol and incubated overnight with shaking at 4° C. The particles were then washed 3× with DPBS and resuspended to a concentration of 16% v/v. The particles were free of endotoxin using a high-sensitivity Limulus amoebocyte lysate assay (BioWhittaker).

Raw 264.7 macrophages [2] = test: PMMA particle-induced TNF-α release from macrophages with or without polymyxin B (ELISA); conditions: 0.30% PMMA particles plus 10 μg/ml polymyxin B
Description: as §1
(§2) Polymyxin B preparation: Polymyxin B was prepared fresh before each use and added to cell cultures at a concentration of 10 μg/ml.
Quantification of TNF-α release with wear debris particles: Macrophages were cultured as above. The media was then replaced with 1 ml of media containing one of three conditions: 1) media alone; 2) PMMA particles at a dose of 0.30% v/v; 3) 0.30% PMMA particles plus 10 μg/ml of polymyxin B. TNF-α levels were measured at 1, 4, and 12 hours post challenge.

Raw 264.7 macrophages [3] = test: LPS-induced TNF-α release from macrophages with or without polymyxin B (ELISA); conditions: 12 h
Description: as §2
Raw264.7 macrophage cell culture experiments: The murine monocyte/macrophage cell line Raw 264.7 was cultured in DMEM containing 10% (v/v) FBS (5% CO2, 37° C.). Cells were plated in 24-well tissue culture plates at 1×10^5 cells/well in 1 ml of media with serum and allowed to adhere for 24 hours. The media was then replaced with 1 ml of media containing one of four conditions: 1) media alone; 2) 10 μg/ml of polymyxin B; 3) 500 pg/ml of LPS (E. coli 055:B5, Sigma); 4) 500 pg/ml LPS and 10 μg/ml polymyxin B. TNF-α release was measured at 12 h after incubation using ELISA. Each group was plated in triplicate and the experiment was repeated two times. Data were analyzed by ANOVA. A p-value <0.05 was considered significant.

Substance | decrease of particle-induced TNF-α release (Raw 264.7 macrophages [1]; 4 h post challenge) [%] | decrease of particle-induced TNF-α release (Raw 264.7 macrophages [1]; 12 h post challenge) [%] | effect on particle-induced TNF-α release (Raw 264.7 macrophages [2]; 4 h) | decrease of particle-induced TNF-α release (Raw 264.7 macrophages [2]; 12 h, non-significant) [%] | effect on particle-induced TNF-α release (Raw 264.7 macrophages [2]; overall statement) | TNF-α levels (Raw 264.7 macrophages [3]; 500 pg/ml LPS plus 10 μg/ml polymyxin B) [pg/mL] | TNF-α release compared to macrophages alone (Raw 264.7 macrophages [3]; 10 μg/ml polymyxin B alone, no LPS)
MyD88 inhibitory peptide: MyD88 homodimerization inhibitory peptide (Imgenex), which binds the MyD88 monomer, blocking MyD88 activation; possibly DRQIKIWFQNRRMKWKKRDVLPGT of b57 | 63 | 32 | – | – | – | – | –
Polymyxin B | – | – | did not alter | 25 | no significant effect | 1120 | no significant difference
